Experimental data: US20040029829A1, “External skin preparations and process for producing the same” (priority 2000, published 2004)

Test system: human epidermic cells
Experiment: Cell activation effect by cell culture (metabolic activity, WST-1)
Format: cell-based
Conditions: 0.5% fermented product 1 (SB), alone or combined
Method: Immortalized cells obtained by transforming human epidermic cells (manufactured by Kurabo Industries, Ltd.) using SV40 virus T antigen according to the method of Yasumoto et al. (Cultured Cell Experiment For Molecular Biology Research by S. Yasumoto, edited by T. Kuroki et al., Yodosha Co., Ltd., 1995, pp 191-200) were used as test cells. The cells were disseminated in a 96 well plate (4×10^3 cells/0.1 ml/well) and cultured in a serum-free liquid medium for proliferation (HuMedia-KG 2: Kurabo Industries, Ltd.) under the conditions of 37° C. and a CO2 concentration of 5%. […] The cells were also cultured in media to which the above components were individually added as Comparative Examples, and in a medium to which none of these components were added as a control. On the third day of culturing, a reducing-type coloring reagent (WST-1, manufactured by Dojindo Co.) was added in an amount of 10 μl/well, followed by incubation for 2 hours under the conditions of 37° C. and a CO2 concentration of 5%. Then, absorption at 450-660 nm was measured. Metabolic activity of the cells was calculated from the resulting absorbance. The cell activation effect was evaluated from the rate of increase in the metabolic activity in comparison with the control sample. […]

Row | SMILES | metabolic activity of human epidermic cells (5×10^−9 M all-trans-retinol (ROH), FIG. 1) | metabolic activity of human epidermic cells (5×10^−10 M all-trans-retinoic acid (RA), FIG. 2)
1 | CC1=C(/C=C/C(C)=C/C=C/C(C)=C/CO)C(C)(C)CCC1 [all-trans-retinol] | cannot exhibit metabolic activity | 
2 | CC1=C(/C=C/C(C)=C/C=C/C(C)=C/C(=O)O)C(C)(C)CCC1 [all-trans-retinoic acid] |  | cannot exhibit metabolic activity
